Source: patent US9757330B2, “Recipe for in-situ gel, and implant, drug delivery system formed thereby” (INDUSTRIAL TECHNOLOGY RESEARCH INSTITUTE, priority 2013, dated 2017)

Test: in-vitro release of risperidone from the in-situ hydrogel into PBS
Assay type: physicochemical
Settings: agarose/urea in-situ hydrogel, Millicell insert in 7.5 ml PBS, HPLC, on the 28 day
Description: 800 μl of the stock solution was mixed with 200 μl of DI water containing dispersed risperidone (20 mg/ml). Then, 150 μl of the solution was added into 12-well Millicells and immersed the insert into 7.5 ml of PBS. The PBS solution was taken out at designated time point and replaced with fresh PBS. The concentration of risperidone was measured via HPLC. The release profile of risperidone from the in-situ hydrogel reached 86% on the 28 day (FIG. 2).

Cc1nc2n(c(=O)c1CCN1CCC(c3noc4cc(F)ccc34)CC1)CCCC2 [risperidone]
release of risperidone from the in-situ hydrogel: 86%
